What all share (type): biochemical
For data set [1], the target named is T1, E. coli gyrase GyrA^M120A (Escherichia coli, UniProt P0AES4+P0AES6, M120A).
T1 construct: alternative cryo-EM approach involving full-length E. coli gyrase; 10-His (cleaved yes); Twin-Strep (cleaved yes); made in house
Kind of data set: DNA gyrase cleavage assay (CC50, % cleaved DNA). The note with it: for % maximal cleavage: GyrAM120A, average of 3 independent assays; for EC50: GyrA^M120A, mean ± s.d. of triplicate. The procedure:
(§1) For DNA gyrase supercoiling assays to characterize gyrase mutants, 15 µl reactions were set up containing 250 ng of relaxed DNA, E. coli gyrase supercoiling buffer (35 mM Tris–Cl pH 7.5, 24 mM KCl, 4 mM MgCl2, 2 mM DTT, 1.8 mM spermidine, 1 mM ATP, 6.0% (w/v) glycerol, and 0.1 mg ml^−1 BSA), gyrase subunits and inhibitors. Concentrations of enzyme and inhibitor are stated in the figure legends. Inhibitors were diluted in the following way to reduce the chance of precipitation: stock compound in 100% DMSO was diluted to 5 mM in 100% DMSO. This compound solution was diluted to 1 mM by stepwise addition of 1 µl of 50% DMSO with thorough mixing via pipetting after each addition. All subsequent dilutions up to 100 µM were performed in the same way using H2O. After this point, compounds were stable and could be diluted in the normal way. Reactions were incubated at 37 °C for 30 min before stopping with 15 µl chloroform:isoamyl alcohol (24:1 v/v) and 15 µl of STEB (40% (w/v) sucrose, 100 mM Tris–Cl pH 8, 10 mM EDTA, 0.5 mg ml^−1 bromophenol blue).
(§2) Cleavage assays were set up in the same way as supercoiling assays with some modifications. The concentration of enzyme was increased 4-fold relative to the supercoiling assay and reactions were incubated for 1 h before addition of 0.2% SDS and proteinase K (0.2 mg ml^−1) and further incubation at 37 °C for 30 min to trap cleavage complexes. Reactions were stopped in the same way as supercoiling assays.
(§3) Results were visualized by agarose gel electrophoresis: 1% agarose Tris-acetate-EDTA (TAE) gels were run without ethidium bromide (supercoiling) or with 10 µg ml^−1 ethidium bromide (cleavage) at 8 V cm^−1.
(§4) DNA cleavage gels were analysed using densitometry (ImageJ). Experiments were carried out in triplicate and expressed as mean ± s.d. Curves were fitted using OriginPro 2021 (Origin Lab) according to a modified Hill equation:1 y=cI+(cF−cI)[…]/(k^n+x^n) where y is the percentage of cleaved DNA, cI is the initial cleavage, cF is the final cleavage, k is the CC50 (the concentration of inhibitor that results in cleavage of 50% of DNA), n is a slope factor and x is the inhibitor concentration.

The target in data set [2] is T2, E. coli gyrase GyrA^A67Q (Escherichia coli, UniProt P0AES4+P0AES6, A67Q).
T2 construct: alternative cryo-EM approach involving full-length E. coli gyrase; 10-His (cleaved yes); Twin-Strep (cleaved yes); made in house
As to the kind of experiment: DNA gyrase cleavage assay (CC50, % cleaved DNA). The note with it: for % maximal cleavage: GyrAA67Q, average of 3 independent assays; for EC50: GyrA^A67Q, mean ± s.d. of triplicate. As for the experimental part: as §1, §2, §3, §4

Data set [3] concerns the target T3, E. coli gyrase GyrA^V70A (Escherichia coli, UniProt P0AES4+P0AES6, V70A).
T3 construct: alternative cryo-EM approach involving full-length E. coli gyrase; 10-His (cleaved yes); Twin-Strep (cleaved yes); made in house
Kind of data set: DNA gyrase cleavage assay (CC50, % cleaved DNA). The settings on record: for % maximal cleavage: GyrAV70A, average of 3 independent assays; for EC50: GyrA^V70A, mean ± s.d. of triplicate. The procedure:
as §1, §2, §3, §4

Data set [4] deals with T4, E. coli gyrase GyrB^K447W (Escherichia coli, UniProt P0AES4+P0AES6, K447W).
T4 construct: alternative cryo-EM approach involving full-length E. coli gyrase; 10-His (cleaved yes); Twin-Strep (cleaved yes); made in house
As to the kind of experiment: DNA gyrase cleavage assay (CC50, % cleaved DNA). The note with it: for % maximal cleavage: GyrBK447W, average of 3 independent assays; for EC50: GyrB^K447W, mean ± s.d. of triplicate. As for the experimental part:
as §1, §2, §3, §4

Data set [5] concerns the target T5, E. coli gyrase GyrA^S83L (Escherichia coli, UniProt P0AES4+P0AES6, S83L).
T5 construct: alternative cryo-EM approach involving full-length E. coli gyrase; 10-His (cleaved yes); Twin-Strep (cleaved yes); made in house
Kind of data set: DNA gyrase cleavage assay (CC50, % cleaved DNA). The note with it: for % maximal cleavage: GyrAS83L, average of 3 independent assays; for EC50: GyrA^S83L, mean ± s.d. of triplicate. As for the experimental part: as §1, §2, §3, §4

Data set [6] has as its target T6, WT E. coli gyrase (Escherichia coli, UniProt P0AES4+P0AES6).
T6 construct: alternative cryo-EM approach involving full-length E. coli gyrase; 10-His (cleaved yes); Twin-Strep (cleaved yes); made in house
As to the kind of experiment: biochemical. The settings on record: for % maximal cleavage: GyraseWT, average of 3 independent assays; for EC50: Gyrase^WT, mean ± s.d. of triplicate, read-out: CC50 (the source's name); for % cleaved DNA Average: WT Gyrase. The procedure: as §1, §2, §3, §4

Data set [7] deals with E. coli Topo IV (Escherichia coli, UniProt P0AFI2+P20083). Kind of data set: Topo IV cleavage assay (cleavage complex stabilization). The settings on record: for stabilization of the cleavage complex with Topo IV: in words. As for the experimental part:
Topo IV cleavage assays were set up in the same way as relaxation assays with some modifications. The concentration of enzyme was increased by 20% and cleavage complexes were trapped by the addition of 0.2% SDS and proteinase K (0.2 mg ml^−1) and further incubation at 37 °C for 30 min. Reactions were stopped in the same way as supercoiling assays.
as §3
Supplementary Figure 11. Activity of albicidin and Albi-1/2/3 on E. coli […]
Cleavage activity of E. coli topo IV in the presence of albicidin, Albi-1, Albi-2 and Albi-3. First lane: negatively supercoiled pBR322; second lane: innate cleavage activity of E. coli topo IV (15 nM); third lane: effect of 20 µM CFX; subsequent lanes: effect of increasing compound concentration (0.1, 1, 10, 100 µM). […]
concentration. All experiments were carried out in triplicates and representative gels […]
(1 picture or pasted object on this page, not shown here)

The text below walks through data of paper PMC9886550, “Molecular mechanism of topoisomerase poisoning by the peptide antibiotic albicidin” (Nature Catalysis, 2023).

Several values for one entry are separate records, joined by “and”; a condition that tells them apart may be missing. Equal values may be shown once.

Sequence of E. coli Topo IV (P0AFI2 whole entry): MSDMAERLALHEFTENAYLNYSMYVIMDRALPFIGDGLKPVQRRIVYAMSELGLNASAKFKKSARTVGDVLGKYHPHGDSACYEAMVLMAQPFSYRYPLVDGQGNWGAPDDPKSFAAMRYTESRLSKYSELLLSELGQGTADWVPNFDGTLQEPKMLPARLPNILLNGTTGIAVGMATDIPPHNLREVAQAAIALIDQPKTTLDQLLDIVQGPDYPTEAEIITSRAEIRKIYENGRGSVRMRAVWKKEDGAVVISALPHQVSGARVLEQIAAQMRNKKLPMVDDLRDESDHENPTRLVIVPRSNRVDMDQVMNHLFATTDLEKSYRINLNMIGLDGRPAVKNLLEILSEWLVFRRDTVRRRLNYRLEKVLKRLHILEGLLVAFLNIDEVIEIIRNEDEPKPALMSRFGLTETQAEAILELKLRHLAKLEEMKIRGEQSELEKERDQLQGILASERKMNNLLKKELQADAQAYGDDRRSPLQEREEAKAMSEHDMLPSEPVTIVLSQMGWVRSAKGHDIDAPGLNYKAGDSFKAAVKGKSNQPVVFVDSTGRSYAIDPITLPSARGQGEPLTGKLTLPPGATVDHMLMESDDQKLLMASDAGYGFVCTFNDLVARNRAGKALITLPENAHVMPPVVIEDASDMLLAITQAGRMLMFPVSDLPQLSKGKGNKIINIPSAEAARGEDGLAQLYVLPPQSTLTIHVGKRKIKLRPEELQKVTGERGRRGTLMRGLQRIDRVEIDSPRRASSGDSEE
Sequence of E. coli Topo IV (P20083 whole entry): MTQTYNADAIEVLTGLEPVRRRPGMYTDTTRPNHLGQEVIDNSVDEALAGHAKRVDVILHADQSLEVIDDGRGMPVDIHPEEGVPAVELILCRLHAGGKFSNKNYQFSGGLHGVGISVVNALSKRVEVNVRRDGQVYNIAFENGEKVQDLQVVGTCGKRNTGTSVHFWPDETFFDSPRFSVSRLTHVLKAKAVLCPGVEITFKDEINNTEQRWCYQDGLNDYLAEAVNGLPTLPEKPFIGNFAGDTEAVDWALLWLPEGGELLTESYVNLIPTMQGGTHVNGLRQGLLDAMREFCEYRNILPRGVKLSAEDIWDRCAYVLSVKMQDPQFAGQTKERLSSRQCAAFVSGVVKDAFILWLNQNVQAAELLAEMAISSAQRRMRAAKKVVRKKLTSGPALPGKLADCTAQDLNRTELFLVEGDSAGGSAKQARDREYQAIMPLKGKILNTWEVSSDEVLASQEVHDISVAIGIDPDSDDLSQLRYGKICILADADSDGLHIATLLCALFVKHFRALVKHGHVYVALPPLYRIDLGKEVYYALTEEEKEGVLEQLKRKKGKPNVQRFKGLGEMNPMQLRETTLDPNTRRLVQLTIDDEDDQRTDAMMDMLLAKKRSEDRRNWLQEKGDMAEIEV

Regarding `CC(C)Oc1c(NC(=O)c2ccc(NC(=O)[C@H](Cc3c[nH]nn3)NC(=O)c3ccc(NC(=O)c4ccc(C#N)cc4)cn3)cn2)ccc(C(=O)Nc2ccc(C(=O)O)cc2)c1O` [Albi-1], the “% maximal cleavage” value in data set [1] was 68±3%; in data set [2], 96±8%; in data set [3], 90±2%; in data set [4], 83±3%; in data set [5], 80±14%; in data set [6], 73±6%. Also, the EC50 in data set [1] turned out to be 15 ± 1.5 nM; in data set [2], 181 ± 67 nM; in data set [3], 16 ± 1.3 nM; in data set [4] it was 412 ± 88 nM; in data set [5], 10 ± 1.5 nM; in data set [6] it was 8 ± 2.7 nM. In data set [4] (GyrB^K447W vs WT gyrase, 60 min), the “increase in CC50” value is recorded as “more than 50 fold”. In addition, in data set [7] (Topo IV cleavage complex stabilization, tested 0.1, 1, 10, 100 µM), the “concentration at which a linear DNA band could be observed” value is listed as 1 µM. Besides, the “stabilization of the cleavage complex with Topo IV” value in data set [7] is “could stabilize the cleavage complex”.
Take `COc1c(NC(=O)c2ccc(NC(=O)c3ccc(NC(=O)[C@H](Cc4c[nH]nn4)NC(=O)c4ccc(NC(=O)c5ccc6cc(O)ccc6c5)cc4)cn3)c(OCCN)c2O)ccc(C(=O)O)c1O` [Albi-2]: the “% maximal cleavage” value in data set [1] is on record as 59±17%; in data set [3] it was 58±2%; in data set [4], 59±6%; in data set [5], 72±7%; in data set [6] it was 78±2%. The EC50 turned out to be 160 ± 15 nM in data set [1], 189 ± 49 nM in data set [3], 251 ± 40 nM in data set [4] and 208 ± 34 nM in data set [5].
Regarding `COc1c(NC(=O)c2ccc(NC(=O)c3ccc(NC(=O)[C@H](Cc4c[nH]nn4)NC(=O)c4ccc(NC(=O)c5ccc6nc(C)ccc6c5)cc4)cn3)c(OC)c2O)ccc(C(=O)O)c1O` [Albi-3], the “% maximal cleavage” value in data set [2] is 78±6%; in data set [3], 63±2%; in data set [4] it was 69±2% and 69%; in data set [5], 85±7%; in data set [6] it was 66±4%. The EC50 in data set [2] came out at 328 ± 19 nM; in data set [3], 36 ± 8.6 nM; in data set [5], 16 ± 4 nM; in data set [6], 25 ± 5.3 nM. Further, the “% cleaved DNA Average” value in data set [6] (Albi-3 0.001 µM) was 5.372%; in data set [6] (Albi-3 0.005 µM), 11.5375%; in data set [6] (Albi-3 0.01 µM), 23.6152%; in data set [6] (Albi-3 0.05 µM), 37.3347%; in data set [6] (Albi-3 0.1 µM), 57.4394%; in data set [6] (Albi-3 0.5 µM) it was 62.8438%. Also, the “% cleaved DNA Average” value in data set [6] (Albi-3 1 µM) came to 66.0682%; in data set [6] (Albi-3 5 µM) it was 61.2004%; in data set [6] (Albi-3 10 µM), 61.7202%. In addition, the “stabilization of the cleavage complex with Topo IV” value in data set [7] is on record as “could stabilize the cleavage complex”.
